According to ChEMBL document CHEMBL1122884, “Syntheses and complement inhibitory activities of 4-(2-phenyl-1H-indol-3-yl)cyclohexane-1-carboxylic acids” (J Med Chem, 1985):

Columns and labels:
Homo sapiens = organism: Homo sapiens; assay: In vitro inhibitory activity against human classical complement pathway; format: functional
Cavia porcellus = assay: Inhibition dose of the Reverse Passive Arthus Reaction (RPAR) in guinea pig after intravenous administration at a dose 80 mg/kg; format: functional

Compound	IC50 (Homo sapiens)	inhibition in vivo at 80 mg/kg (Cavia porcellus)
O=C(O)c1ccc(-c2c(-c3ccccc3)[nH]c3ccccc23)cc1	105 µM	
O=C(O)C1CC=C(c2c(-c3ccccc3)[nH]c3ccccc23)CC1 (stereo not drawn)	135 µM	64%
